# Assay results taken from ChEMBL document CHEMBL5131391, “One-pot three-component synthesis of novel pyrazolo[3,4-b]pyridines as potent antileukemic agents” (Eur J Med Chem, 2022).
# Legend:
# Format in all cases: functional
# [1] = tested on: SF-268; experiment: Antiproliferative activity against human SF-268 cells assessed as growth inhibition at 10 uM measured after 48 hrs by NCI protocol based SRB assay relative to control; conditions: read-out: GI
# [2] = tested on: SNB-75; experiment: Antiproliferative activity against human SNB-75 cells assessed as growth inhibition at 10 uM measured after 48 hrs by NCI protocol based SRB assay relative to control; conditions: read-out: GI
# [3] = tested on: RXF 393; experiment: Antiproliferative activity against human RXF 393 cells assessed as growth inhibition at 10 uM measured after 48 hrs by NCI protocol based SRB assay relative to control; conditions: read-out: GI
# [4] = tested on: CCRF-CEM; experiment: Antiproliferative activity against human CCRF-CEM cells assessed as growth inhibition at 10 uM measured after 48 hrs by NCI protocol based SRB assay relative to control; conditions: read-out: GI
# [5] = tested on: NCI/ADR-RES; experiment: Antiproliferative activity against human NCl/ADR-RES cells assessed as growth inhibition at 10 uM measured after 48 hrs by NCI protocol based SRB assay relative to control; conditions: read-out: GI
# [6] = tested on: MOLT-4; experiment: Antiproliferative activity against human MOLT-4 cells assessed as growth inhibition at 10 uM measured after 48 hrs by NCI protocol based SRB assay relative to control; conditions: read-out: GI
# [7] = tested on: K562; experiment: Antiproliferative activity against human K562 cells assessed as reduction in cell viability incubated for 72 hrs by resazurin dye based assay; conditions: K562, 72 h
# [8] = tested on: IGROV-1; experiment: Antiproliferative activity against human IGROV-1 cells assessed as growth inhibition at 10 uM measured after 48 hrs by NCI protocol based SRB assay relative to control; conditions: read-out: GI
# [9] = tested on: MDA-MB-468; experiment: Antiproliferative activity against human MDA-MB-468 cells assessed as growth inhibition at 10 uM measured after 48 hrs by NCI protocol based SRB assay relative to control; conditions: read-out: GI
# [10] = tested on: ACHN; experiment: Antiproliferative activity against human ACHN cells assessed as growth inhibition at 10 uM measured after 48 hrs by NCI protocol based SRB assay relative to control; conditions: read-out: GI
# [11] = tested on: NCI-H322M; experiment: Antiproliferative activity against human NCI-H322M cells assessed as growth inhibition at 10 uM measured after 48 hrs by NCI protocol based SRB assay relative to control; conditions: read-out: GI
# [12] = tested on: MCF7; experiment: Antiproliferative activity against human MCF7 cells assessed as growth inhibition at 10 uM measured after 48 hrs by NCI protocol based SRB assay relative to control; conditions: read-out: GI
# [13] = tested on: T47D; experiment: Antiproliferative activity against human T47D cells assessed as growth inhibition at 10 uM measured after 48 hrs by NCI protocol based SRB assay relative to control; conditions: read-out: GI
# [14] = tested on: NCI-H522; experiment: Antiproliferative activity against human NCI-H522 cells assessed as growth inhibition at 10 uM measured after 48 hrs by NCI protocol based SRB assay relative to control; conditions: read-out: GI
# [15] = tested on: SNB-19; experiment: Antiproliferative activity against human SNB-19 cells assessed as growth inhibition at 10 uM measured after 48 hrs by NCI protocol based SRB assay relative to control; conditions: read-out: GI
# [16] = tested on: A549; experiment: Antiproliferative activity against human A549 cells assessed as growth inhibition at 10 uM measured after 48 hrs by NCI protocol based SRB assay relative to control; conditions: read-out: GI
# [17] = tested on: SF-295; experiment: Antiproliferative activity against human SF-295 cells assessed as growth inhibition at 10 uM measured after 48 hrs by NCI protocol based SRB assay relative to control; conditions: read-out: GI
# [18] = tested on: K562; experiment: Antiproliferative activity against human K562 cells assessed as growth inhibition at 10 uM measured after 48 hrs by NCI protocol based SRB assay relative to control; conditions: read-out: GI
# [19] = tested on: CAKI-1; experiment: Antiproliferative activity against human CAKI-1 cells assessed as growth inhibition at 10 uM measured after 48 hrs by NCI protocol based SRB assay relative to control; conditions: read-out: GI
# [20] = tested on: TK-10; experiment: Antiproliferative activity against human TK-10 cells assessed as growth inhibition at 10 uM measured after 48 hrs by NCI protocol based SRB assay relative to control; conditions: read-out: GI
# [21] = tested on: NCI-H226; experiment: Antiproliferative activity against human NCI-H226 cells assessed as growth inhibition at 10 uM measured after 48 hrs by NCI protocol based SRB assay relative to control; conditions: read-out: GI
# [22] = tested on: SF-539; experiment: Antiproliferative activity against human SF-539 cells assessed as growth inhibition at 10 uM measured after 48 hrs by NCI protocol based SRB assay relative to control; conditions: read-out: GI
# [23] = tested on: HOP-92; experiment: Antiproliferative activity against human HOP-92 cells assessed as growth inhibition at 10 uM measured after 48 hrs by NCI protocol based SRB assay relative to control; conditions: read-out: GI
# [24] = tested on: HCT-15; experiment: Antiproliferative activity against human HCT-15 cells assessed as growth inhibition at 10 uM measured after 48 hrs by NCI protocol based SRB assay relative to control; conditions: read-out: GI
# [25] = tested on: M14; experiment: Antiproliferative activity against human M14 cells assessed as growth inhibition at 10 uM measured after 48 hrs by NCI protocol based SRB assay relative to control; conditions: read-out: GI
# [26] = tested on: BT-549; experiment: Antiproliferative activity against human BT-549 cells assessed as growth inhibition at 10 uM measured after 48 hrs by NCI protocol based SRB assay relative to control; conditions: read-out: GI
# [27] = tested on: HCT-116; experiment: Antiproliferative activity against human HCT-116 cells assessed as growth inhibition at 10 uM measured after 48 hrs by NCI protocol based SRB assay relative to control; conditions: read-out: GI
# [28] = tested on: SK-MEL-5; experiment: Antiproliferative activity against human SK-MEL-5 cells assessed as growth inhibition at 10 uM measured after 48 hrs by NCI protocol based SRB assay relative to control; conditions: read-out: GI
# [29] = tested on: CCRF-CEM; experiment: Antiproliferative activity against human CEM cells assessed as reduction in cell viability incubated for 72 hrs by resazurin dye based assay
# [30] = tested on: DU-145; experiment: Antiproliferative activity against human DU-145 cells assessed as growth inhibition at 10 uM measured after 48 hrs by NCI protocol based SRB assay relative to control; conditions: read-out: GI
# [31] = tested on: KM12; experiment: Antiproliferative activity against human KM12 cells assessed as growth inhibition at 10 uM measured after 48 hrs by NCI protocol based SRB assay relative to control; conditions: read-out: GI
# [32] = tested on: U-251; experiment: Antiproliferative activity against human U-251 cells assessed as growth inhibition at 10 uM measured after 48 hrs by NCI protocol based SRB assay relative to control; conditions: read-out: GI
# [33] = tested on: SK-MEL-2; experiment: Antiproliferative activity against human SK-MEL-2 cells assessed as growth inhibition at 10 uM measured after 48 hrs by NCI protocol based SRB assay relative to control; conditions: read-out: GI
# [34] = tested on: OVCAR-8; experiment: Antiproliferative activity against human OVCAR-8 cells assessed as growth inhibition at 10 uM measured after 48 hrs by NCI protocol based SRB assay relative to control; conditions: read-out: GI
# [35] = tested on: HOP-62; experiment: Antiproliferative activity against human HOP-62 cells assessed as growth inhibition at 10 uM measured after 48 hrs by NCI protocol based SRB assay relative to control; conditions: read-out: GI
# [36] = tested on: COLO 205; experiment: Antiproliferative activity against human COLO 205 cells assessed as growth inhibition at 10 uM measured after 48 hrs by NCI protocol based SRB assay relative to control; conditions: read-out: GI
# [37] = tested on: 786-0; experiment: Antiproliferative activity against human 786-0 cells assessed as growth inhibition at 10 uM measured after 48 hrs by NCI protocol based SRB assay relative to control; conditions: read-out: GI
structure (smiles),measurement,setting,value
Cc1ccc(-c2nc3c(c(-c4ccccc4)nn3-c3ccccc3)c(-c3ccc(O)cc3)c2C#N)cc1,inhibition of growth at 10 µM,[1],40%
same,inhibition of growth at 10 µM,[2],60%
same,inhibition of growth at 10 µM,[3],110%
same,inhibition of growth at 10 µM,[4],61%
same,inhibition of growth at 10 µM,[5],19%
same,inhibition of growth at 10 µM,[6],60%
same,IC50,[7],8.8 µM
same,inhibition of growth at 10 µM,[8],18%
same,inhibition of growth at 10 µM,[9],48%
same,inhibition of growth at 10 µM,[10],33%
same,inhibition of growth at 10 µM,[11],12%
same,inhibition of growth at 10 µM,[12],74%
same,inhibition of growth at 10 µM,[13],39%
same,inhibition of growth at 10 µM,[14],31%
same,inhibition of growth at 10 µM,[15],31%
same,inhibition of growth at 10 µM,[16],48%
same,inhibition of growth at 10 µM,[17],120%
same,inhibition of growth at 10 µM,[18],78%
same,inhibition of growth at 10 µM,[19],50%
same,inhibition of growth at 10 µM,[20],62%
same,inhibition of growth at 10 µM,[21],21%
same,inhibition of growth at 10 µM,[22],85%
same,inhibition of growth at 10 µM,[23],26%
same,inhibition of growth at 10 µM,[24],72%
same,inhibition of growth at 10 µM,[25],40%
same,inhibition of growth at 10 µM,[26],24%
same,inhibition of growth at 10 µM,[27],58%
same,inhibition of growth at 10 µM,[28],23%
same,IC50,[29],13.4 µM
same,inhibition of growth at 10 µM,[30],40%
same,inhibition of growth at 10 µM,[31],45%
same,inhibition of growth at 10 µM,[32],59%
same,inhibition of growth at 10 µM,[33],22%
same,inhibition of growth at 10 µM,[34],31%
same,inhibition of growth at 10 µM,[35],60%
same,inhibition of growth at 10 µM,[36],30%
same,inhibition of growth at 10 µM,[37],82%
